Experimental data reported in ChEMBL document CHEMBL5335806, “Cytotoxic leuconoxine-type diazaspiroindole alkaloids isolated from Cryptolepis dubia” (Bioorg Med Chem Lett, 2024).
Converted amounts (≈) assume the structure as drawn.

Experiments:
OVCAR-3 = assay: Cytotoxicity against human OVCAR-3 cells assessed as inhibition of cell viability incubated for 72 hrs; format: functional, cell-based; conditions: OVCAR-3, 72 h
HT-29 = assay: Cytotoxicity against human HT-29 cells assessed as inhibition of cell viability incubated for 72 hrs; format: functional, cell-based; conditions: HT-29, 72 h
MDA-MB-435 = assay: Cytotoxicity against human MDA-MB-435 cells assessed as inhibition of cell viability incubated for 72 hrs; format: functional, cell-based; conditions: MDA-MB-435, 72 h
MDA-MB-231 = assay: Cytotoxicity against human MDA-MB-231 cells assessed as inhibition of cell viability incubated for 72 hrs; format: functional, cell-based; conditions: MDA-MB-231, 72 h
Salmonella typhimurium = assay: Antibacterial activity against Salmonella typhimurium TISTR 291 by a two-fold serial dilution method; format: functional, Salmonella enterica subsp. enterica serovar Typhimurium; conditions: Salmonella enterica
Escherichia coli = assay: Antibacterial activity against Escherichia coli TISTR 780 by a two-fold serial dilution method; format: functional
Micrococcus luteus = assay: Antibacterial activity against Micrococcus luteus by a two-fold serial dilution method; format: functional
[1] = tested on: Staphylococcus epidermidis; assay: Antibacterial activity against Staphylococcus epidermidis by a two-fold serial dilution method; format: functional

Q: Which results are given for `CC[C@@]12CCCN3C(=O)C(Cl)=C4c5ccccc5N(C(=O)CC1)[C@]432`?
A: IC50 (OVCAR-3): 5.9 µM; IC50 (HT-29): > 10 µM; IC50 (MDA-MB-435): > 10 µM; IC50 (MDA-MB-231): > 10 µM

Q: Which MIC (Salmonella typhimurium) does the source give for `CC[C@@]12CCCN3C(=O)C=C4c5ccccc5N(C(=O)CC1)[C@]432` here?
A: 64 µg/mL (≈ 208 µM)

Q: What about the MIC (Escherichia coli) of the same molecule?
A: 64 µg/mL (≈ 208 µM)

Q: And the IC50 (OVCAR-3)?
A: 9.1 µM

Q: What about the MIC (Micrococcus luteus) of the same molecule?
A: 64 µg/mL (≈ 208 µM)

Q: And the MIC [1]?
A: 64 µg/mL (≈ 208 µM)

Q: And the IC50 (HT-29)?
A: > 10 µM

Q: And the IC50 (MDA-MB-435)?
A: > 10 µM

Q: And the IC50 (MDA-MB-231)?
A: > 10 µM
